From patent publication US10744351B2 (priority 2009, dated 2020)

system: influenza virus (influenza A/Kitakyusyu/159/93(H3N2)); assay type: biochemical

Question: For `[Cu+].[I-]` [COPPER(I) IODIDE, copper(I) iodide], which HA titer is on record?
Answer: Its HA titer is 16.

Question: silver(I) iodide was tested. Which HA titer did it give?
Answer: The HA titer was 64.

Question: For `[I-].[I-].[Pt+2]` [PLATINUM(II) IODIDE, platinum(II) iodide], which HA titer is on record?
Answer: Its HA titer is less than 2.

Question: `[I][Pd][I]` [PALLADIUM(II) IODIDE, palladium(II) iodide] was tested. Which HA titer did it give?
Answer: Its HA titer is 4.

Question: How did the HA titer turn out when `N#C[S-].[Cu+]` [COPPER(I) THIOCYANATE, copper(I) thiocyanate] was run?
Answer: Its HA titer is 2.
